Measurements from patent US9737535B2, “Methods for treating cancer using TOR kinase inhibitor combination therapy comprising administering substituted pyrazino[2,3-b]pyrazines” (Signal Pharmaceuticals, LLC, priority 2014, dated 2017).

Columns and labels:
Experiment in all cases: Anti-proliferation assay (ATPLite), Chalice synergy score
Format in all cases: cell-based
BT-20 = test system: BT-20; set-up: scale not given here; settings: Compound 1 in combination with the named second active agent, 72 h, mean of n = 3 experiments in triplicate
Source text: (§1) Cells were thawed from a liquid nitrogen preserved state.
(§2) The calculation for synergy score is provided below.
(§3) If T≧V0:100*[1−(T−V0)/(V−V0)]

HCC-1187 = test system: HCC-1187; set-up: scale not given here; settings: Compound 1 in combination with the named second active agent, 72 h, mean of n = 3 experiments in triplicate
Source text: as §1, §2, §3

HCC-1500 = test system: HCC-1500; set-up: scale not given here; settings: Compound 1 in combination with the named second active agent, 72 h, mean of n = 3 experiments in triplicate
Source text: as §1, §2, §3

BT-474 = settings: Compound 1 in combination with the named second active agent, 72 h, mean of n = 3 experiments in triplicate
Source text: as §1, §2, §3

BT-549 = settings: Compound 1 in combination with the named second active agent, 72 h, mean of n = 3 experiments in triplicate
Source text: as §1, §2, §3

HCC-1428 = settings: Compound 1 in combination with the named second active agent, 72 h, mean of n = 3 experiments in triplicate
Source text: as §1, §2, §3

HCC-1806 = settings: Compound 1 in combination with the named second active agent, 72 h, mean of n = 3 experiments in triplicate
Source text: as §1, §2, §3

HCC-1937 = settings: Compound 1 in combination with the named second active agent, 72 h, mean of n = 3 experiments in triplicate
Source text: as §1, §2, §3

HCC70 = settings: Compound 1 in combination with second active agent; HCC-70; mean self-cross + 2σ threshold 3.45
Source text: as §1, §2, §3

Hs-578-T = settings: Compound 1 in combination with second active agent, mean self-cross + 2σ threshold 4.09
Source text: as §1, §2, §3

MCF7 = settings: Compound 1 in combination with second active agent, mean self-cross + 2σ threshold 3.07
Source text: as §1, §2, §3

MDA-MB-157 = settings: Compound 1 in combination with second active agent, mean self-cross + 2σ threshold 4.68
Source text: as §1, §2, §3

MDA-MB-231 = settings: Compound 1 in combination with second active agent, mean self-cross + 2σ threshold 2.61
Source text: as §1, §2, §3

MDA-MB-436 = settings: Compound 1 in combination with second active agent, mean self-cross + 2σ threshold 1.91
Source text: as §1, §2, §3

MDA-MB-468 = settings: Compound 1 in combination with second active agent, mean self-cross + 2σ threshold 4.66
Source text: as §1, §2, §3

SMILES	Synergy score (BT-20)	Synergy score (HCC-1187)	Synergy score (HCC-1500)	Synergy score (BT-474)	Synergy score (BT-549)	Synergy score (HCC-1428)	Synergy score (HCC-1806)	Synergy score (HCC-1937)	Synergy score (HCC70)	Synergy score (Hs-578-T)	Synergy score (MCF7)	Synergy score (MDA-MB-157)	Synergy score (MDA-MB-231)	Synergy score (MDA-MB-436)	Synergy score (MDA-MB-468)
C[C@]1(c2nc3c(C(N)=O)cccc3[nH]2)CCCN1 [ABT-888]	0.33	1.28	1.13	0.09	0.35	0.09	0.56	0.35	1.10	0.42	0.25	0.90	0.22	0.32	0.18
O=C(NC[C@H](O)CO)c1ccncc1Nc1ccc(I)cc1F [AS703026]	6.08	8.22	4.24	2.61	1.73	6.26	4.71	2.41	13.70	6.43	2.90	6.66	10.90	2.25	5.71
C=CC(=O)Nc1ccc2ncnc(Nc3ccc(OCc4cccc(F)c4)c(Cl)c3)c2c1 [AST-1306]	7.60	2.17	0.96	4.02	4.88	2.69	5.59	6.39	7.50	4.43	4.34	3.02	4.37	2.08	5.65
Clc1ccc(C2(c3ccc(-c4cn[nH]c4)cc3)CCNCC2)cc1 [AT7867]	3.07	4.19	2.00	1.83	4.50	1.42	2.04	1.72	4.28	5.24	1.39	3.19	3.58	1.95	3.60
NC(=O)Nc1cc(-c2cccc(F)c2)sc1C(=O)N[C@H]1CCCNC1 [AZD7762]	3.92	1.65	3.02	1.21	0.39	2.58	0.32	4.44	4.61	8.16	0.08	3.09	3.66	0.93	0.94
COc1ccc(-c2ccc3c(N4CCOC[C@@H]4C)nc(N4CCOC[C@@H]4C)nc3n2)cc1CO [AZD8055]	0.70	2.00	2.98	1.53	0.98	1.79	1.47	2.24	1.13	1.55	1.22	1.04	0.61	0.15	1.69
COc1ccc(-c2cc3nccn3c(Nc3ncccc3C(N)=O)n2)cc1OC.Cl [BAY61-3606 Hydrochloride]	0.20	3.17	0.02	0.04	2.31	1.21	0.48	0.18	3.93	5.49	1.49	1.49	0.79	0.94	5.47
COc1c(C)cnc(Cn2cnc3c(Cl)nc(N)nc32)c1C [BIIB021]	3.71	0.45	1.11	2.83	0.12	4.02	1.01	1.44	9.58	1.19	0.15	3.94	1.22	0.33	5.46
NC(=O)[C@@H](CCC(F)(F)F)N(Cc1ccc(-c2ncon2)cc1F)S(=O)(=O)c1ccc(Cl)cc1 [BMS-708163]	0.20	3.06	0.34	0.19	0.34	0.26	0.89	0.96	1.24	1.36	0.16	0.63	1.45	0.86	0.98
C[C@@]1(C(=O)Nc2ccc(F)nc2)CCCN1c1nc(Nc2cc(C3CC3)n[nH]2)c2cccn2n1 [BMS-754807]	2.08	9.68	3.99	1.30	2.14	4.09	3.04	0.64	2.08	3.32	5.31	9.46	2.50	2.00	2.25
Cc1ccc(S(=O)(=O)/C=C/C#N)cc1 [Bay 11-7082]	0.00	0.51	0.52	0.93	1.16	1.53	1.01	1.23	1.13	1.51	0.02	3.65	0.61	1.24	1.89
O=C(O)c1ccc2c(c1)nc(Nc1cccc(Cl)c1)c1ccncc12 [CX-4945]	6.09	7.53	2.93	4.91	3.41	3.28	4.19	7.92	10.60	5.97	2.26	4.55	2.30	1.70	6.73
CO[C@H]1/C=C\C=C(/C)C(=O)NC2=CC(=O)C(NCCN(C)C)=C(C[C@@H](C)C[C@H](OC)[C@H](O)[C@@H](C)/C=C(\C)[C@@H]1OC(N)=O)C2=O [Compound 17-DMAG]	5.94	0.33	0.99	2.24	0.01	2.46	1.40	1.70	11.10	0.45	0.13	6.09	1.00	0.61	7.72
C[C@]12CC[C@@H]3c4ccc(O)cc4C[C@@H](CCCCCCCCC[S+]([O-])CCCC(F)(F)C(F)(F)F)[C@H]3[C@@H]1CC[C@@H]2O (stereo partly drawn) [Fulvestrant]	1.39	2.16	5.15	1.37	1.25	1.09	1.30	1.98	1.50	2.10	2.45	0.42	0.77	0.74	0.41
OCCn1cc(-c2ccc3c(c2)CC/C3=N\O)c(-c2ccncc2)n1 [GDC-0879]	0.00	0.85	0.91	0.46	0.08	0.13	0.47	0.29	0.43	0.75	0.11	0.69	0.54	0.13	0.44
